Results from US20240254138A1, “TRICYCLIC PYRIMIDINES AS CYCLIN-DEPENDENT KINASE 7 (CDK7) INHIBITORS” (JANSSEN PHARMACEUTICA NV, priority 2021, published 2024).
Like-named read-outs stand apart in the source and are kept apart here.

Key:
[1] = test system: RNA Polymerase II Serine 5 phosphorylation (Rpb1 CTD, downstream substrate of CDK7) in A549 cells; assay: Imaging-based cellular RNA PolII Ser5 phosphorylation assay in A549 cells; type: cell-based, human; conditions: wild-type CDK7, RNA PolII Ser5 phosphorylation, averaged over all measurements; for IC50: Homo sapiens, A549, A549 cells, read-out: CDK7_A549 Wild-type CDK7 (pIC50) (converted); for CDK7_A549 Wild-type CDK7 (pIC50): A549 cells
In short: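 IC50 derived by fitting % control (DMSO high, 10 μM reference low) against concentration, with Hill slope. Readout: high-content imaging of phospho-Ser5 Rpb1 CTD antibody staining in fixed, permeabilized A549 cells exposed to compound 3 h after 20 h culture in 1% FBS DMEM.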

[2] = test system: RNA Polymerase II Serine 5 phosphorylation in A549 cells overexpressing CDK7-mutant (C312S); assay: Imaging-based cellular RNA PolII Ser5 phosphorylation assay in A549 cells overexpressing CDK7-mutant (C312S); type: cell-based, human; conditions: RNA PolII Ser5 phosphorylation, averaged over all measurements; for IC50: Homo sapiens, A549, A549 cells overexpressing CDK7-mutant (C312S), read-out: CDK7_A549 mutant hCDK7(pIC50) (converted); for CDK7_A549 mutant hCDK7(pIC50): A549 cells overexpressing CDK7-mutant (C312S)
In short: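 Readout was automated imaging of anti-phospho-Ser5 Rpb1 CTD immunofluorescence, with IC50 fitted to % control versus concentration. Cells were A549 stably overexpressing non-covalently targetable CDK7 C312S alongside wild-type, exposed to compound 3 h at 37 °C. DMSO and 10 μM reference compound served as controls.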

[3] = biological target: CDK7/cyclinH/MAT1 trimeric complex (Homo sapiens, UniProt P50613); assay: In vitro CDK7 assay, potency of irreversible covalent inhibitors (kinact/KI), coupled PK/LDH ADP readout at 340 nm; conditions: for CDK7 (kinact/KI, M^−1*s^−1): potency of irreversible covalent inhibitors
Sequence of CDK7/cyclinH/MAT1 trimeric complex (P50613 whole entry): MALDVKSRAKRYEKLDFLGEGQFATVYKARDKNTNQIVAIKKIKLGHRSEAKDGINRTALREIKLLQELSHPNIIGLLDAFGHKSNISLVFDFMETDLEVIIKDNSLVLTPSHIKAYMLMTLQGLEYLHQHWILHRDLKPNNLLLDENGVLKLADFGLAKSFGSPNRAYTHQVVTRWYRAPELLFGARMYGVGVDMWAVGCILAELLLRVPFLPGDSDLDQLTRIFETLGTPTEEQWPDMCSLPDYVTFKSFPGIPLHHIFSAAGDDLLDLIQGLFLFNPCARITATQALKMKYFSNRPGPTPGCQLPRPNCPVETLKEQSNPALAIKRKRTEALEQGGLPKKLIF
Sequence of CDK7/cyclinH/MAT1 trimeric complex (P51946 whole entry partner): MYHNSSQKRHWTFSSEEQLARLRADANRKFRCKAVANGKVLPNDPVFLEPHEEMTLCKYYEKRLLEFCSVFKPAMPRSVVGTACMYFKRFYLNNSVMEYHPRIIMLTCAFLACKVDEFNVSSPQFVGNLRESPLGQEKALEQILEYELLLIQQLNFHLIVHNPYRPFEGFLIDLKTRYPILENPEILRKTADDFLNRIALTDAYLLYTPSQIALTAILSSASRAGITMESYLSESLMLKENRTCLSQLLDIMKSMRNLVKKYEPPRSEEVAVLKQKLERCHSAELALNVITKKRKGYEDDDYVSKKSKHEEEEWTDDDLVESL
Sequence of CDK7/cyclinH/MAT1 trimeric complex (P51948 whole entry partner): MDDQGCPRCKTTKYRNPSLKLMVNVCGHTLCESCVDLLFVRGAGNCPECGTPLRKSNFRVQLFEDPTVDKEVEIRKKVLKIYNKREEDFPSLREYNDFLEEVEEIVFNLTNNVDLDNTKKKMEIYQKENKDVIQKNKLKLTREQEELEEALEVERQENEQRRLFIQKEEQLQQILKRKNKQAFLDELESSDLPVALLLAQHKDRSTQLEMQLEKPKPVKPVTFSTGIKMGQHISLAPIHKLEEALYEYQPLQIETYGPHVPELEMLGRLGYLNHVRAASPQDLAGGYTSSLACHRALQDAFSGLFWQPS

[4] = CDK7 (20 nM enz.) (KI, μM), 20 nM enzyme
[5] = read-out: CDK7 (20 nM enz.) (kinact, s^−1), 20 nM enzyme
[6] = read-out: CDK7 (20 nM enz.) (kinact/KI, M^−1*s^−1), 20 nM enzyme
[7] = CDK7 (KI(μM)), […], 1 mM ATP, room temperature, averaged values over all measurements
[8] = read-out: CDK7 (kinact, s^−1), kinact = maximal rate of inactivation, 1 mM ATP, room temperature, averaged values over all measurements
[9] = read-out: CDK7 (kinact/KI, M^−1*s^−1), potency of irreversible covalent inhibitors, 1 mM ATP, room temperature, averaged values over all measurements
[10] = 1 mM ATP, room temperature, averaged values over all measurements

IC50 [1] | IC50 [2] | Ki [3, 4] | kinact [3, 5] | kinact/KI [3, 6] | CDK7_A549 Wild-type CDK7 (pIC50) [1] | CDK7_A549 mutant hCDK7(pIC50) [2] | CDK7 (20 nM enz.) (kinact, s^−1) ([3]; 20 nM enzyme) | CDK7 (20 nM enz.) (kinact/KI, M^−1*s^−1) ([3]; 20 nM enzyme) | Ki [3, 7] | kinact [3, 8] | kinact/KI [3, 9] | CDK7 (kinact/KI, M^−1*s^−1) [3, 10] | Compound
158 nM | > 10000 nM | 0.00977 µM | 2.91e-05 s⁻¹ |  |  |  |  | 2981 M⁻¹ s⁻¹ |  |  |  |  | CC#CC(=O)N1CC(N2CCC(c3cc4c(c(C#N)n3)O[C@@H](C)c3c(N5CCOCC5)ccnc3N4)CC2)C1 (single isomer, unassigned) [Compound 520]
5250 nM | > 10000 nM | 1.71 µM | 2.72e-05 s⁻¹ | 15.9 M⁻¹ s⁻¹ |  |  |  |  |  |  |  |  | CC#CC(=O)N1CC(N2CC[C@@H](c3cc4c(c(C)n3)O[C@@H](C)c3c(N5CCOCC5)ccnc3N4)N(C)CC2)C1 (single isomer, unassigned) [Compound 521]
141 nM | 5370 nM | 0.0109 µM | 1.44e-05 s⁻¹ | 1320 M⁻¹ s⁻¹ |  |  |  |  |  |  |  |  | CC#CC(=O)N1CC(N2CC[C@H](c3cc4c(c(C)n3)O[C@H](C)c3c(N5CCOCC5)ccnc3N4)N(C)CC2)C1 (single isomer, unassigned) [Compound 525]
9770 nM | > 10000 nM | 1.81 µM | 1.58e-05 s⁻¹ | 8.74 M⁻¹ s⁻¹ |  |  |  |  |  |  |  |  | CC#CC(=O)N1CC(N2CC[C@@H](c3cc4c(c(C)n3)O[C@H](C)c3c(N5CCOCC5)ccnc3N4)N(C)CC2)C1 (single isomer, unassigned) [Compound 527]
603 nM | > 10000 nM | 0.0976 µM | 1.7e-05 s⁻¹ | 174 M⁻¹ s⁻¹ |  |  |  |  |  |  |  |  | CC#CC(=O)N1CC(N2CC[C@H](c3cc4c(c(C)n3)O[C@@H](C)c3c(N5CCOCC5)ccnc3N4)N(C)CC2)C1 (single isomer, unassigned) [Compound 528]
155 nM | > 10000 nM | 0.0182 µM | 4.94e-05 s⁻¹ | 2710 M⁻¹ s⁻¹ |  |  |  |  |  |  |  |  | CC#CC(=O)N1CC(N2CCC(c3cc4c(c(C)n3)O[C@H](C)c3c(-c5cnn(C)c5)ccnc3N4)CC2)C1 (single isomer, unassigned) [Compound 541]
 |  | 0.0082 µM |  |  | 6.62 | <5 | 0.0000556 s⁻¹ | 6751 M⁻¹ s⁻¹ |  |  |  |  | CC#CC(=O)N1CC(N2CCC(c3cc4c(c(C#N)n3)O[C@@H](C)c3c(N5CCOCC5)ccnc3N4)CC2)C1 (single isomer, unassigned) [Compound 542]

The next lines start with the molecule.

Compound | IC50 [1] | IC50 [2] | Ki [3, 4] | kinact [3, 5] | kinact/KI [3, 6] | CDK7_A549 Wild-type CDK7 (pIC50) [1] | CDK7_A549 mutant hCDK7(pIC50) [2] | CDK7 (20 nM enz.) (kinact, s^−1) ([3]; 20 nM enzyme) | CDK7 (20 nM enz.) (kinact/KI, M^−1*s^−1) ([3]; 20 nM enzyme) | Ki [3, 7] | kinact [3, 8] | kinact/KI [3, 9] | CDK7 (kinact/KI, M^−1*s^−1) [3, 10]
C=CC(=O)N1CC[C@@H](N2CC(c3cc4c(c(C#N)n3)O[C@@H](C)c3c(N5CCOCC5)ccnc3N4)C2)C1 (single isomer, unassigned) [Compound 509] | 2400 nM | > 10000 nM | 1.28 µM | 1.85e-05 s⁻¹ | 14.5 M⁻¹ s⁻¹ |  |  |  |  |  |  |  | 
CC#CC(=O)N1CC(N2CCC(c3cc4c(c(C)n3)O[C@H](C)c3c(N5CCOCC5)ccnc3N4)CC2)C1 (single isomer, unassigned) [Compound 510] |  |  | 0.052 µM |  |  | 6.72 | <5 | 3.092e-05 s⁻¹ | 594.812 M⁻¹ s⁻¹ |  |  |  | 
CC#CC(=O)N1CCC(N2CC(c3cc4c(c(C#N)n3)O[C@H](C)c3c(C5CCOCC5)ccnc3N4)C2)CC1 (single isomer, unassigned) [Compound 517] | 3020 nM | > 10000 nM | 2.91 µM | 4.23e-05 s⁻¹ | 14.3 M⁻¹ s⁻¹ |  |  |  |  |  |  |  | 
CC#CC(=O)N1CCC(N2CC(c3cc4c(c(C#N)n3)O[C@@H](C)c3c(C5CCOCC5)ccnc3N4)C2)CC1 (single isomer, unassigned) [Compound 518] | 64.6 nM | 4070 nM | 0.0075 µM | 3.26e-05 s⁻¹ | 4340 M⁻¹ s⁻¹ |  |  |  |  |  |  |  | 
C=CC(=O)Nc1ccc(C(=O)Nc2ccc3c(c2)Nc2ncc(C)c(C4CCOCC4)c2CO3)cc1 [Compound 2] | 794 nM | > 10000 nM |  |  |  |  |  |  |  | 0.129 µM | 7.86e-05 s⁻¹ | 609 M⁻¹ s⁻¹ | 
C=CC(=O)N1CC(N2CCC(c3ccc4c(c3)Nc3nccc(C5CCOCC5)c3CO4)CC2)C1 [Compound 3] |  | > 10000 nM |  |  |  | 6.89 |  |  |  |  |  |  | 2787.5 M⁻¹ s⁻¹
C=CC(=O)N1CC(N2CCC(c3ccc4c(c3)Nc3nccc(N5CCOCC5)c3CO4)CC2)C1 [Compound 4] |  |  |  |  |  | 6.84 | <5 |  |  | 0.0617 µM | 0.000303 s⁻¹ |  | 3147.06 M⁻¹ s⁻¹
C#CCOc1cc(C(=O)Nc2ccc3c(c2)Nc2nccc(C4CCOCC4)c2CO3)ccc1NC(=O)C=C [Compound 8] | 120 nM | > 10000 nM | 0.0321 µM | 5.8e-05 s⁻¹ | 1810 M⁻¹ s⁻¹ |  |  |  |  |  |  | 1530 M⁻¹ s⁻¹ | 
C=CC(=O)N1CC(N2CCC(c3ccc4c(c3)Nc3nccc(N5CCS(=O)(=O)CC5)c3CO4)CC2)C1 [Compound 9] | 447 nM | > 10000 nM |  |  |  |  |  |  |  |  |  | 486 M⁻¹ s⁻¹ | 
